In patent US20240270821A1, “GIP/GLP1/GCG TRI-RECEPTOR AGONISTS AND USES THEREOF” (priority 2023, published 2024):
Like-named read-outs stand apart in the source and are kept apart here. Starred links: 1 amine or outer side, 2 acyl side, 3 side chain; linkers in the order of their positions; H or OH if unused. Non-standard residues stand in square brackets, D forms with d. Residues, ends and D or L forms follow the SMILES beside them. Groups on a side chain read outwards from the residue. *: point of attachment. C20 diacid = O=C(O)CCCCCCCCCCCCCCCCCCC(=O)*; C18 diacid = O=C(O)CCCCCCCCCCCCCCCCC(=O)*; αMePhe(2-F) = C[C@](N)(Cc1ccccc1F)C(=O)O; γGlu = O=C(O)[C@H](CCC(=O)[*:2])N[*:1]; αMe4Pal = C[C@](N)(Cc1ccncc1)C(=O)O; αMeY = C[C@](N)(Cc1ccc(O)cc1)C(=O)O; 4Pal = N[C@@H](Cc1ccncc1)C(=O)O; αMeL = CC(C)C[C@](C)(N)C(=O)O; αMeS = C[C@](N)(CO)C(=O)O; Orn = NCCC[C@H](N)C(=O)O; AEEA = NCCOCCOCC(=O)O; Aib = CC(C)(N)C(=O)O

Columns and labels:
[1] = Pepsin stability assay in simulated gastric fluid; format: in vitro ADME; settings: pH 1.2, % Intact (SD)
Description: A pepsin stability assay is utilized to determine the relative stability of Example polypeptides in a simulated gastric proteolytic environment. […] The relative amount of intact peptide is quantified by mass spectrometry (MS). […] The examples were dissolved in 50 mM Tris buffer pH 8.0 at a concentration of 10 mg/mL as a stock solution. Pepsin A was reconstituted in SGF at 10 mg/mL. […] The example peptide and pepsin solutions were then incubated at 37° C. in a shaking incubator set at 100 rpm. Samples (25 μL) were withdrawn at different time intervals and quenched with 100 mM ammonium bicarbonate pH 9 (50 μL) to stop proteolytic activity. All samples were centrifuged, and the supernatants were analyzed by LC/MS to determine the remaining intact peptide.

hGIPR [2] = target: T1, hGIPR (Homo sapiens, UniProt P48546); assay: Functional cAMP activity in the presence of 1% HSA; format: cell-based; settings: read-out: cAMP Rel EC50, hGIPR
T1 sequence (P48546 22-466): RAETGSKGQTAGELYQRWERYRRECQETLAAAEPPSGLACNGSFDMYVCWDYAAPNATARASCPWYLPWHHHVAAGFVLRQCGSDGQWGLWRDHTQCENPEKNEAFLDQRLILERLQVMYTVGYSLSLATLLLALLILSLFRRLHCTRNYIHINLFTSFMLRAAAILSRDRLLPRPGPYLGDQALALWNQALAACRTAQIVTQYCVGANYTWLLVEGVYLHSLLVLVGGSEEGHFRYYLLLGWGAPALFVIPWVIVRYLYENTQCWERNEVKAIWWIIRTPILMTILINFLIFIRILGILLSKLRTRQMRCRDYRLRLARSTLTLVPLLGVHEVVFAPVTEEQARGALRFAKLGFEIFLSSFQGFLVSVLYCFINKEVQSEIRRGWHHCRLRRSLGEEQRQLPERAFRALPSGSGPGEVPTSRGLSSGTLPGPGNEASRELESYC

hGLP-1R [3] = target: T2, hGLP-1R (Homo sapiens, UniProt P43220); assay: Functional cAMP activity in the presence of 1% HSA; format: cell-based; settings: read-out: cAMP Rel EC50, hGLP-1R
Target sequence in this assay (P43220 24-463): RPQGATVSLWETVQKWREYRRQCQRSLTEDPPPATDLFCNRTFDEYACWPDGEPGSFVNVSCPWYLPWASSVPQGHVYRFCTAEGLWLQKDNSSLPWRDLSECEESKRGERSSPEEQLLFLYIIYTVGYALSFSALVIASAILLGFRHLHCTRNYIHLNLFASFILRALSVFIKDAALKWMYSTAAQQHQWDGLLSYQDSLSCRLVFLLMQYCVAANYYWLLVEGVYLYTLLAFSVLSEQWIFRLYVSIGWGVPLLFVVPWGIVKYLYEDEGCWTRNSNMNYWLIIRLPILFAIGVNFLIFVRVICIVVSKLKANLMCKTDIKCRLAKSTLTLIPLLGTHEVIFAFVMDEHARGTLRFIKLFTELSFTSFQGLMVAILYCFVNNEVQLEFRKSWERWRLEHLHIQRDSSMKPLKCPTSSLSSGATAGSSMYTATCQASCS

hGcgR = hGcgR (Homo sapiens, UniProt P47871); assay: Functional cAMP activation in the presence of 0.1% casein (no HSA); format: cell-based; settings: read-out: Relative cAMP EC50, hGcgR;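 further: intracellular cAMP rise after 30 min at 37 °C, read by HTRF against a cAMP standard curve, scaled from buffer only (0%) to maximal control ligand response (100%)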
human GcgR = human GcgR (Homo sapiens, UniProt P47871); assay: Functional cAMP activity in the presence of 1% HSA; format: cell-based; settings: read-out: cAMP Rel EC50, hGcgR
hGIPR [4] = target: T1, hGIPR; assay: Functional cAMP activation in the presence of 0.1% casein (no HSA); format: cell-based; settings: read-out: Relative cAMP EC50, hGIPR;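 on Relative cAMP EC50, hGIPR: intracellular cAMP rise after 30 min at 37 °C read by HTRF against a standard curve, scaled between buffer alone (0%) and top control ligand concentration (100%), four-parameter fit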;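 on Relative cAMP EC50, hGLP-1R: intracellular cAMP rise after 30 min at 37 °C read by HTRF, normalized between buffer only (0%) and maximal control ligand (100%), four-parameter variable-slope fit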
hGLP-1R [5] = target: T2, hGLP-1R; assay: as above; format: cell-based; settings: read-out: Relative cAMP EC50, hGLP-1R
Target sequence in this assay (P43220 24-463): as above

hGLP-1R [6] = target: T2, hGLP-1R; assay: GLP-1R CHO cell β-arrestin recruitment assay; format: cell-based; design: host or cells: CHO-K1 (PathHunter, assay-ready frozen cells); settings: for EC50: CHO-K1 PathHunter, β-arrestin-2, 0.1% casein, read-out: hGLP1R β-arrestin Rel EC50; for % Stimulation Max: normalized to GLP-1(7-36) as maximum control;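 on all read-outs here: luminescence read after 90 min peptide exposure at 37 °C and a further 60 min with detection reagent at room temperature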
Target sequence in this assay (P43220 24-463): as above
Target sequence in this assay (P32121 whole entry partner): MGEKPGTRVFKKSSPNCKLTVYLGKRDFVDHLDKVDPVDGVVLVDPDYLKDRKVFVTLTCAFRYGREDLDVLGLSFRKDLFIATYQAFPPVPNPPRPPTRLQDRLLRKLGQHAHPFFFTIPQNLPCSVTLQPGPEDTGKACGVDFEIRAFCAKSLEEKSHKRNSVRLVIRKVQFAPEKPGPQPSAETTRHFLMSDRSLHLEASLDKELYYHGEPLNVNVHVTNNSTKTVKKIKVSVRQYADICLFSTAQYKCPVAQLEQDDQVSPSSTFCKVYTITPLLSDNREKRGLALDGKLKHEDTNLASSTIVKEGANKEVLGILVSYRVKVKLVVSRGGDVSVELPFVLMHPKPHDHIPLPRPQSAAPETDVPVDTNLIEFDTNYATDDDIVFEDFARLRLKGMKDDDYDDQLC

[7] = Body weight in diet-induced obese C57BL/6 mice; format: in vivo; settings: percent of starting weight, DIO mice, mean ± SEM n=5
Description: To investigate the effect of the polypeptides as described herein on weight loss, exemplary polypeptides are dosed to C57BL/6 diet-induced obese (DIO) mice. Specifically, DIO male C57BL/6 mice (Taconic, Germantown, NY) maintained on a calorie-rich diet are used in the following studies. Mice are individually housed in a temperature-controlled (24° C.) facility with 12-hour light/dark cycle (lights on 22:00) and free access to food (TD95217) and water. After a minimum of 2 weeks acclimation to the facility, the mice are randomized according to their body weight, so each experimental group of animals would have similar starting body weight. The body weights range from 41 to 50 g. All groups contain 5 mice. […] Treatments are administered by subcutaneous (SC) injection (10 mL/kg) to ad libitum fed DIO mice 30 to 90 minutes prior to the onset of the dark cycle either once daily (QD) or once every 3 days (Q3D) for 9-16 days. Body weight and food intake are measured daily throughout the study. Body weight is presented as percent of the starting weight. […] Data are presented as mean±SEM of 5 animals per group in Table 7 below. Statistical analysis is performed using repeated measures ANOVA, followed by Dunnett's method comparison test.

human GLP1-R = human GLP1-R (Homo sapiens, UniProt P43220); assay: GLP1-R internalization assay in HEK293 cells; format: cell-based; settings: for EC50: HEK293 cells expressing SNAP-GLP-1R, read-out: GLP1R Internalization EC50; for Internalization % TOP: normalized to maximum concentration of GLP-1 (100%)
[8] = in the presence of 0.1% casein (no HSA), geometric mean

Chain of hGcgR (P47871 26-477): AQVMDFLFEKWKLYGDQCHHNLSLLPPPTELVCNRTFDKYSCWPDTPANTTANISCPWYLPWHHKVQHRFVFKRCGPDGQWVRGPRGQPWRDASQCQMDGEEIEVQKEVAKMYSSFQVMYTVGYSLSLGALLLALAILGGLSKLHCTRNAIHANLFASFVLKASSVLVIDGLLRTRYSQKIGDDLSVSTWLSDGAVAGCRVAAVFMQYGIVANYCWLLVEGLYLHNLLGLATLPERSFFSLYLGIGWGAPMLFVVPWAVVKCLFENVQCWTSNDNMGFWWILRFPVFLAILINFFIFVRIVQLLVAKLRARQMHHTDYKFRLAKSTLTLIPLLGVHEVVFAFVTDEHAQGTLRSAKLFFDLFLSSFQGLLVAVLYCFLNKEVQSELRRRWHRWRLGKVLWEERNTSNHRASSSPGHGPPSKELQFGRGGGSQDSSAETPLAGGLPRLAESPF
Chain of human GcgR (P47871 26-477): as above
Chain of human GLP1-R (P43220 24-463): as the sequence (P43220 24-463) above

Compound	remaining at 0.25 h, 0.4 mg/mL [1] [%]	remaining at 0.5 h, 0.4 mg/mL [1] [%]	remaining at 1 h, 0.4 mg/mL [1] [%]	EC50 (hGIPR [2]) [nM]	EC50 (hGLP-1R [3]) [nM]	EC50 (hGcgR) [nM]	EC50 (human GcgR) [nM]	EC50 (hGIPR [4]) [nM]	EC50 (hGLP-1R [5]) [nM]	EC50 (hGLP-1R [6]) [nM]	% Stimulation Max (hGLP-1R [6]) [%]	EC50 (hGcgR; [8]) [nM]	EC50 (human GLP1-R) [nM]	Internalization % TOP (human GLP1-R) [%]	EC50 (hGIPR [4]; [8]) [nM]	EC50 (hGLP-1R [5]; [8]) [nM]	Body weight (%) ([7]; 10 nmol/kg SC QD, 16 days)	Body weight (%) ([7]; 10 nmol/kg SC Q3D, 14 days)
H-Y[Aib]QGTFTSD[4Pal]SQ[αMeL]LD[Orn]K([dE-γGlu-C18 diacid])AQ[αMe4Pal]EFI[dE][αMeY]LIAGGPSSGAPPPSGSEEE-NH2 [Example 1235]	1.4	0	0															
H-Y[Aib]QGT[αMePhe(2-F)]TSD[4Pal][αMeS]I[αMeL]LD[Orn]K([AEEA-γGlu-C18 diacid])AQ[αMe4Pal]EFI[dE][αMeY]LIEGGPSSGAPPPSGTGE-NH2 [Example 714]	99.2	102	96.9	0.754	33.2	1.76	197	0.00764	0.289									
H-Y[Aib]QGT[αMePhe(2-F)]TSD[4Pal]SI[αMeL]LD[Orn]K([AEEA-γGlu-C18 diacid])AQ[αMe4Pal][Orn]FI[dE]YLIEGGPSSGEPPPEGT-NH2 [Example 500]	10.6	1	0	3.9	50.3	4.04	494	0.0375	0.623									
H-Y[Aib]QGTFTSDFSI[αMeL]LDKK([AEEA-γGlu-C20 diacid])AQ[Aib]AFIEYLLEGGPSSGEPPPSEG-NH2 [Example 288]				59.1	616		3580			16.3	18	5.17	30.3	72.4	0.234	1.89		86.18 ± 0.67
CC[C@H](C)[C@H](NC(=O)[C@H](CC(C)C)NC(=O)[C@](C)(Cc1ccc(O)cc1)NC(=O)[C@@H](CCC(=O)O)NC(=O)[C@@H](NC(=O)[C@H](Cc1ccccc1)NC(=O)[C@@H](NC(=O)C(C)(C)NC(=O)[C@H](CCC(N)=O)NC(=O)[C@H](C)NC(=O)[C@H](CCCCNC(=O)COCCOCCNC(=O)CC[C@H](NC(=O)CCCCCCCCCCCCCCCCC(=O)O)C(=O)O)NC(=O)[C@H](CCCN)NC(=O)[C@H](CC(=O)O)NC(=O)[C@H](CC(C)C)NC(=O)[C@](C)(CC(C)C)NC(=O)[C@@H](NC(=O)[C@](C)(CO)NC(=O)[C@H](Cc1ccncc1)NC(=O)[C@H](CC(=O)O)NC(=O)[C@H](CO)NC(=O)[C@@H](NC(=O)[C@](C)(Cc1ccccc1F)NC(=O)[C@@H](NC(=O)CNC(=O)[C@H](CCC(N)=O)NC(=O)C(C)(C)NC(=O)[C@@H](N)Cc1ccc(O)cc1)[C@@H](C)O)[C@@H](C)O)[C@@H](C)CC)[C@@H](C)O)[C@@H](C)CC)C(=O)N[C@@H](CCC(=O)O)C(=O)NCC(=O)NCC(=O)N1CCC[C@H]1C(=O)N[C@@H](CO)C(=O)N[C@@H](CO)C(=O)NCC(=O)N[C@@H](CCC(=O)O)C(=O)N1CCC[C@H]1C(=O)N1CCC[C@H]1C(=O)N1CCC[C@H]1C(=O)N[C@@H](CCC(=O)O)C(N)=O [Example 457] (H-Y[Aib]QGT[αMePhe(2-F)]TSD[4Pal][αMeS]I[αMeL]LD[Orn]K([AEEA-γGlu-C18 diacid])AQ[Aib]TFI[dE][αMeY]LIEGGPSSGEPPPE-NH2)	78.8	68.9	60.1	0.881	11.7	2.86	333	0.00918	0.226									
H-Y[Aib]QGT[αMePhe(2-F)]TSD[4Pal][αMeS]I[αMeL]LD[Orn]K([AEEA-γGlu-C18 diacid])AQ[αMe4Pal]EFI[dE][αMeY]LIEGGPSSGEPPPSGTGE-NH2 [Example 711]	95	91.6	91.9	0.786	35.2	1.29	197	0.00861	0.355									
H-Y[Aib]QGT[αMePhe(2-F)]TSD[4Pal][αMeS]I[αMeL]LD[Orn]K([γGlu-γGlu-C18 diacid])AQ[αMe4Pal]EFI[dE][αMeY]LIEGGPSSGAPPPSGTGE-NH2 [Example 718]	103	101		0.531	23.2	1.2	144	0.00706	0.214									

Continued, in another order:

remaining at 0.25 h, 0.4 mg/mL [1] [%]	remaining at 0.5 h, 0.4 mg/mL [1] [%]	remaining at 1 h, 0.4 mg/mL [1] [%]	EC50 (hGIPR [2]) [nM]	EC50 (hGLP-1R [3]) [nM]	EC50 (hGcgR) [nM]	EC50 (human GcgR) [nM]	EC50 (hGIPR [4]) [nM]	EC50 (hGLP-1R [5]) [nM]	EC50 (hGLP-1R [6]) [nM]	% Stimulation Max (hGLP-1R [6]) [%]	EC50 (hGcgR; [8]) [nM]	EC50 (human GLP1-R) [nM]	Internalization % TOP (human GLP1-R) [%]	EC50 (hGIPR [4]; [8]) [nM]	EC50 (hGLP-1R [5]; [8]) [nM]	Compound	Body weight (%) ([7]; 10 nmol/kg SC QD, 16 days)	Body weight (%) ([7]; 10 nmol/kg SC Q3D, 14 days)
			21.8	171		517			14	55.2	1.72	19.2	87.2	0.0806	0.536	H-Y[Aib]QGT[αMePhe(2-F)]TSDYSILLDKIAAK([AEEA-γGlu-C20 diacid])AFIEYLIEGGPSSGEPPPSEG-NH2 [Example 296]	49.64 ± 1.97	
100	113	103	0.857	33.3	1.25	203	0.00688	0.266								H-Y[Aib]QGT[αMePhe(2-F)]TSD[4Pal][αMeS]I[αMeL]LD[Orn]K([AEEA-γGlu-C18 diacid])AQ[αMe4Pal]EFI[dE][αMeY]LIEGGPSSGEPPPSGGGE-NH2 [Example 742]		
91.6	78.9	53.5	2.1	39	0.445	92	0.00707	0.205								H-Y[Aib]QGT[αMePhe(2-F)]TSD[4Pal]SI[αMeL]LD[Orn]K([AEEA-γGlu-C18 diacid])AQ[αMe4Pal][Orn]FIE[αMeY]LIEGGPSSGEPPPEGT-NH2 [Example 505]		
109	107	110	1.15	34.3	1.6	207	0.00894	0.293								H-Y[Aib]QGT[αMePhe(2-F)]TSD[4Pal][αMeS]I[αMeL]LD[Orn]K([AEEA-γGlu-C18 diacid])AQ[αMe4Pal]EFI[dE][αMeY]LVEGGPSSGEPPPSGS-NH2 [Example 733]		
